# Measurements as given in patent US20190119282A1, “IMIDAZOPYRIDAZINES USEFUL AS INHIBITORS OF THE PAR-2 SIGNALING PATHWAY” (Vertex Pharmaceuticals Incorporated, priority 2013, published 2019).
# Key:
# [1] = biological target: T1, PAR2 (HT-29 cells, trypsin activation) (Homo sapiens, UniProt P55085); assay: Ca FLIPR TETRA assay, ANTAGONIST mode, stimulation with 3.1 U/mL trypsin; type: cell-based; conditions: HT-29 cells, stimulation with 3.1 U/mL trypsin
# T1 construct: host or cells: HT-29 cells
# T1 sequence (P55085 26-397): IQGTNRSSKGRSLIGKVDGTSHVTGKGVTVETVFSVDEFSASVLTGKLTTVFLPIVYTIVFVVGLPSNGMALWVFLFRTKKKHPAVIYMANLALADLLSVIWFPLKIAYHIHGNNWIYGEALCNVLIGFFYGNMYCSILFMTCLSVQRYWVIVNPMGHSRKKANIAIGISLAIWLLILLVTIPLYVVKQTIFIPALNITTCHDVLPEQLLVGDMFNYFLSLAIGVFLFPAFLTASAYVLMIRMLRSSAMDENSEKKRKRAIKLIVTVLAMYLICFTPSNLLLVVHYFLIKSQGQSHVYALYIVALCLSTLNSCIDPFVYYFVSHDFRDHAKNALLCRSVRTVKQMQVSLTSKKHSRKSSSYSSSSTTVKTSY
# In short: (§1)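 Antagonist-mode FLIPR Tetra Ca2+ readout: after 30 min r.t. compound pre-incubation, HT-29 cells are challenged with trypsin (3.1 U/mL final), SLIGKV (8 μM), thrombin (1 U/mL) or UTP (0.6 μM). Cells were plated overnight in 1% FBS medium and dye-loaded with Calcium 5; an initial read checks compound agonism.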
# [2] = test system: Thrombin-stimulated Ca2+ response in HT-29 cells; assay: Ca FLIPR TETRA assay, ANTAGONIST mode, stimulation with 1 U/mL Thrombin; type: cell-based, human; conditions: Homo sapiens, HT-29 cells, stimulation with 1 U/mL Thrombin
# In short: as §1
# [3] = biological target: T2, PAR2 (HT-29 cells, SLIGKV activation) (Homo sapiens, UniProt P55085); assay: Ca FLIPR TETRA assay, ANTAGONIST mode, stimulation with 8 μM SLIGKV; type: cell-based; conditions: HT-29 cells, stimulation with 8 μM SLIGKV
# T2 construct: host or cells: HT-29 cells
# T2 sequence (P55085 26-397): T1 sequence (P55085 26-397)
# In short: as §1
# [4] = test system: UTP-stimulated Ca2+ response in HT-29 cells; assay: Ca FLIPR TETRA assay, ANTAGONIST mode, stimulation with 0.6 μM UTP; type: cell-based, human; conditions: Homo sapiens, HT-29 cells, stimulation with 0.6 μM UTP
# In short: as §1
Compound,IC50 ([1]; antagonist mode),IC50 ([2]; antagonist mode),IC50 ([3]; antagonist mode),IC50 ([4]; antagonist mode),IC50 [1],IC50 [2],IC50 [3],IC50 [4]
CC(C)c1cc(-c2ccc(F)cc2)nn2cc(C(=O)N3CCN(C(=O)c4nc[nH]n4)CC3(C)C)nc12 [Compound I-237],14.1 nM,> 1000 nM,5.8 nM,> 1000 nM,–,–,–,–
Cc1cc(C(=O)N2CCN(C(=O)c3cn4nc(-c5ccc(F)cc5)cc(C(C)(F)F)c4n3)C(C)(C)C2)[nH]n1 [Compound I-355],7 nM,> 1000 nM,9.6 nM,> 1000 nM,–,–,–,–
Cc1nnc(C(=O)N2CCN(C(=O)c3cn4nc(-c5ccc(Cl)cc5)cc(C(C)(C)C)c4n3)C(C)(C)C2)o1 [Compound I-443],1.2 nM,> 1000 nM,0.8 nM,> 1000 nM,–,–,–,–
CC(F)(F)c1cc(-c2ccc(F)cc2)nn2cc(C(=O)N3CCNC(=O)C3(C)C)nc12 [Compound I-325],110 nM,> 1000 nM,55.5 nM,> 1000 nM,–,–,–,–
C=C(C)c1cc(-c2ccc(F)cc2)nn2cc(C(=O)N3CCN(C)C(=O)C3(C)C)nc12 [Compound I-212],54.7 nM,> 1000 nM,90.3 nM,> 1000 nM,–,–,–,–
CC(C)(C)c1cc(-c2ccc(Cl)c(F)c2)nn2cc(C(=O)N3CCN(C(=O)[C@H]4C[C@@](C)(O)C4)CC3(C)C)nc12 [Compound I-469],0.2 nM,8840 nM,0.2 nM,11000 nM,–,–,–,–
Cc1nnc(C(=O)N2CCN(C(=O)c3cn4nc(-c5ccc(C(F)F)cc5)cc(C(C)C)c4n3)C(C)(C)C2)o1 [Compound I-299],53 nM,> 1000 nM,37.3 nM,> 1000 nM,–,–,–,–
CC(C)(C)c1cc(C2CCC(F)(F)CC2)nn2cc(C(=O)N3CCN(c4c[nH]cn4)C(=O)C3(C)C)nc12 [Compound I-430],23.8 nM,> 1000 nM,16.3 nM,> 1000 nM,–,–,–,–
Cc1n[nH]c(C(=O)N2CCN(C(=O)c3cn4nc(-c5ccc(F)c(C)c5)cc(C(C)(C)C)c4n3)C(C)(C)C2)n1 [Compound I-414],1.3 nM,> 1000 nM,1 nM,> 1000 nM,–,–,–,–
Cc1ccc(-c2cc(C(C)C)c3nc(C(=O)N4CCN(C(=O)c5cc(C)n[nH]5)CC4(C)C)cn3n2)cc1 [Compound I-330],1.4 nM,> 1000 nM,1.7 nM,> 1000 nM,–,–,–,–
Cn1nnnc1N1CCN(C(=O)c2cn3nc(-c4ccc(F)cc4)cc(C(C)(C)C)c3n2)C(C)(C)C1=O [Compound I-248],58.5 nM,> 1000 nM,56.6 nM,> 1000 nM,–,–,–,–
CC(C)c1cc(-c2ccc(C(F)F)cc2)nn2cc(C(=O)N3CCN(C(=O)c4cn[nH]c4)CC3(C)C)nc12 [Compound I-295],8.3 nM,> 1000 nM,7.5 nM,> 1000 nM,–,–,–,–
CC1CN(C(=O)c2cn3nc(-c4ccc(F)cc4)cc(C(F)(F)F)c3n2)CCCN1C(=O)OC(C)(C)C (centres unmarked) [Compound I-94],–,–,–,–,12000 nM,> 50000 nM,3600 nM,> 50000 nM
CC(C)c1cc(-c2ccc(F)c(F)c2)nn2cc(C(=O)N3CCN(C(=O)C(C)(C)O)CC3(C)C)nc12 [Compound I-221],39.5 nM,> 1000 nM,23.3 nM,> 1000 nM,–,–,–,–
Cc1ccc(-c2cc(C(C)(C)C)c3nc(C(=O)N4CCNC(=O)C4(C)C)cn3n2)cc1 [Compound I-347],2.3 nM,> 1000 nM,2.9 nM,> 1000 nM,–,–,–,–
CC(C)(C)c1cc(-c2ccc(F)cc2)nn2cc(C(=O)N3CCN(C#N)C(=O)C3(C)C)nc12 [Compound I-234],1.3 nM,> 1000 nM,0.9 nM,> 1000 nM,–,–,–,–
CC(C)(C)c1cc(-c2ccc(F)cc2)nn2cc(C(=O)N3CCN(c4cc[nH]n4)C(=O)C3(C)C)nc12 [Compound I-471],1.6 nM,905 nM,0.8 nM,> 1000 nM,–,–,–,–
CC(C)(C)c1cc(-c2ccc(F)cc2)nn2cc(C(=O)N3CCN(c4nn[nH]n4)C(=O)C3(C)C)nc12 [Compound I-235],1.1 nM,> 1000 nM,0.7 nM,930 nM,–,–,–,–
CC(C)c1cc(-c2ccc(F)c(Cl)c2)nn2cc(C(=O)N3CCNC(=O)C3(C)C)nc12 [Compound I-363],2.8 nM,> 1000 nM,5.4 nM,> 1000 nM,–,–,–,–

Compound,IC50 ([1]; antagonist mode),IC50 ([2]; antagonist mode),IC50 ([3]; antagonist mode),IC50 ([4]; antagonist mode),IC50 [1],IC50 [2],IC50 [3],IC50 [4]
CC(C)c1cc(-c2ccc(F)cc2)nn2cc(C(=O)N3CCN(C(=O)c4ncc[nH]4)CC3(C)C)nc12 [Compound I-238],8.5 nM,> 1000 nM,2.5 nM,> 1000 nM,–,–,–,–
CC(C)(C)c1cc(-c2ccc(F)cc2)nn2cc(C(=O)N3CCN(C(=O)c4ncc[nH]4)CC3(C)C)nc12 [Compound I-229],0.8 nM,> 1000 nM,0.5 nM,> 1000 nM,–,–,–,–
CC(C)(C)c1cc(-c2ccc(F)cc2)nn2cc(C(=O)N3CCN(C(=O)c4ccno4)CC3(C)C)nc12 [Compound I-202],0.9 nM,> 1000 nM,0.6 nM,> 1000 nM,–,–,–,–
Cc1nc[nH]c1C(=O)N1CCN(C(=O)c2cn3nc(-c4ccc(F)cc4)cc(C(C)(C)C)c3n2)C(C)(C)C1 [Compound I-311],4.1 nM,> 1000 nM,6.8 nM,> 1000 nM,–,–,–,–
CC(C)(C)c1cc(-c2ccc(Cl)c(F)c2)nn2cc(C(=O)N3CCN(C(=O)c4ccn[nH]4)CC3(C)C)nc12 [Compound I-454],0.7 nM,> 1000 nM,0.4 nM,> 1000 nM,–,–,–,–
CC(C)c1cc(-c2ccc(F)cc2)nn2cc(C(=O)N3CCN(C(=O)CC4CCOCC4)[C@@H](C)C3)nc12 [Compound I-141],–,–,–,–,130 nM,19000 nM,16 nM,24000 nM
Cc1ccc(-c2cc(C(C)(C)C)c3nc(C(=O)N4CCN(C(=O)c5ncccn5)CC4(C)C)cn3n2)cc1 [Compound I-392],2.5 nM,> 1000 nM,1.4 nM,> 1000 nM,–,–,–,–
Cc1noc(C)c1CCC(=O)N1CCN(C(=O)c2cn3nc(-c4ccc(F)cc4)cc(C(C)C)c3n2)C[C@@H]1C [Compound I-136],–,–,–,–,34 nM,> 5000 nM,7 nM,7700 nM
CC(C)c1cc(-c2ccc(C(F)(F)F)c(F)c2)nn2cc(C(=O)N3CCN(C(=O)c4ccncn4)CC3(C)C)nc12 [Compound I-278],2.8 nM,> 1000 nM,2.1 nM,> 1000 nM,–,–,–,–
CC(C)N1CCN(C(=O)c2cn3nc(-c4ccc(F)cc4)cc(C(C)(C)C)c3n2)C(C)(C)C1=O [Compound I-207],8.3 nM,> 1000 nM,9.8 nM,> 1000 nM,–,–,–,–
Cc1ccc(-c2cc(C(C)C)c3nc(C(=O)N4CCNC(=O)C4(C)C)cn3n2)cc1 [Compound I-242],7.7 nM,> 1000 nM,5 nM,> 1000 nM,–,–,–,–
Cc1cc(-c2cc(C(C)C)c3nc(C(=O)N4CCN(CC(C)(C)O)C(=O)C4(C)C)cn3n2)ccc1F [Compound I-449],46.5 nM,> 1000 nM,25.5 nM,> 1000 nM,–,–,–,–
CC(C)(C)c1cc(-c2ccc(C(F)(F)F)cc2)nn2cc(C(=O)N3CCN(c4c[nH]cn4)C(=O)C3(C)C)nc12 [Compound I-358],4.4 nM,> 1000 nM,11.3 nM,> 1000 nM,–,–,–,–
CC(O)C(=O)N1CCN(C(=O)c2cn3nc(-c4ccc(F)cc4)cc(C(C)C)c3n2)C[C@@H]1C (some centres unmarked) [Compound I-119],–,–,–,–,2100 nM,> 50000 nM,200 nM,> 50000 nM
Cc1cc(-c2cc(C(C)C)c3nc(C(=O)N4CCN(C(=O)[C@H]5C[C@](O)(C(F)(F)F)C5)CC4(C)C)cn3n2)ccc1F [Compound I-260],1.1 nM,> 100 nM,0.7 nM,> 100 nM,–,–,–,–
C#CCCC(=O)N1CCN(C(=O)c2cn3nc(-c4ccc(F)cc4)cc(C(C)C)c3n2)C[C@@H]1C [Compound I-126],–,–,–,–,210 nM,13000 nM,25 nM,13000 nM
CC(C)c1cc(-c2ccc(F)cc2)nn2cc(C(=O)N3CCN(C(=O)[C@H](O)CC(C)(C)C)C[C@H]3C)nc12 [Compound I-196],20 nM,> 1000 nM,20.5 nM,> 1000 nM,–,–,–,–
CC(C)(O)C(=O)N1CCN(C(=O)c2cn3nc(-c4ccc(F)cc4)cc(C(C)(C)C)c3n2)C(C)(C)C1 [Compound I-198],5.6 nM,> 1000 nM,4.4 nM,> 1000 nM,–,–,–,–
CC(C)(C)c1cc(-c2ccc(F)cc2)nn2cc(C(=O)N3CCN(C(=O)C4CCCO4)CC3(C)C)nc12 (centres unmarked) [Compound I-200],2.9 nM,> 1000 nM,2.4 nM,> 1000 nM,–,–,–,–
